Assay results published in PubChem BioAssay (NCI).
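Results reflect a 48-hour exposure of cells in 96-well plates to compound at five concentrations. GI50 = concentration required for 50% inhibition of growth. TGI: total growth inhibition.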

Legend:
Assay in all cases: DTP human tumour cell line panel, 48 h
DLD-1 colon = test system: DLD-1 colon
UACC-257 melanoma = test system: UACC-257 melanoma
LXFL 529 NSCLC = test system: LXFL 529 NSCLC
OVCAR-3 ovarian = test system: OVCAR-3 ovarian
SNB-19 CNS = test system: SNB-19 CNS
LOX IMVI melanoma = test system: LOX IMVI melanoma
SNB-78 CNS = test system: SNB-78 CNS
SF-295 CNS = test system: SF-295 CNS
CAKI-1 renal = test system: CAKI-1 renal
MDA-N = test system: MDA-N
PC-3 prostate = test system: PC-3 prostate

Row | Structure (SMILES) | TGI (DLD-1 colon) [µM] | TGI (UACC-257 melanoma) [µM] | TGI (LXFL 529 NSCLC) [µM] | TGI (OVCAR-3 ovarian) [µM] | TGI (SNB-19 CNS) [µM] | TGI (LOX IMVI melanoma) [µM] | TGI (SNB-78 CNS) [µM] | TGI (SF-295 CNS) [µM] | TGI (CAKI-1 renal) [µM] | TGI (MDA-N) [µM] | TGI (PC-3 prostate) [µM] | GI50 (LOX IMVI melanoma) [µM] | GI50 (LXFL 529 NSCLC) [µM] | GI50 (OVCAR-3 ovarian) [µM] | GI50 (SNB-78 CNS) [µM]
1 | O=C1C2=C(CCCCC2)C2CCCCC12O (configuration not stated) | > 100 | > 100 | > 100 | > 100 | > 100 | > 100 | > 100 | > 100 |  |  |  |  |  |  | 
2 | Cc1ccc(S(=O)(=O)C2c3nc4ccccc4cc3-c3nc4ccccc4nc32)cc1 (configuration not stated) | > 100 | > 100 | > 100 | > 100 | > 100 | > 100 | > 100 |  | > 100 |  |  |  |  |  | 
3 | N#Cc1ccc(Nc2cnc3ccc(N)cc3n2)cc1 | > 100 | > 100 | > 100 | > 100 | > 100 | > 100 | > 100 | > 100 | > 100 |  |  |  |  |  | 
4 | CCCCCCCC(=O)OCC(C[As](=O)(O)O)OC(=O)CCCCCCC (configuration not stated) | 30.9 | 28.1 | 26.3 |  | 28.2 |  | 44.1 | 30.6 |  |  |  |  |  |  | 
5 | CC(=O)Nc1ccc(-c2nnc(SCC(=O)Nc3cccc([N+](=O)[O-])c3)o2)cc1 | 35.5 | 51.4 | 17 | 40.5 |  | 23 | 50 | 32 | 55.8 |  |  |  |  |  | 
6 | COc1cc(/C=c2/c3ccccc3n3c2cc(-c2ccccc2)[n+]3C)cc(OC)c1OC |  | 7.68 |  | 6.82 | 17.9 | 12.6 |  | 19.2 | 11.8 | 34.6 | 14.6 |  |  |  | 
7 | N#CCOc1cccc(C2(N3CC=CCC3)CCCCC2)c1 |  | > 100 |  | > 100 | > 100 | > 100 |  | > 100 | > 100 | > 100 | > 100 |  |  |  | 
8 | S=c1nc2sc3c(c2c(Nc2ccc(Br)cc2)[nH]1)CCN(N1CCc2c(sc4nc(=S)[nH]c(Nc5ccc(Br)cc5)c24)C1)C3 |  | > 50 |  | > 50 | > 50 | 24.9 |  | > 50 | > 50 | 44.2 | > 50 |  |  |  | 
9 | Clc1cc(OCC23CC4CC(CC(C4)C2)C3)nc(OCC23CC4CC(CC(C4)C2)C3)n1 |  | > 100 |  | > 100 | > 100 | > 100 |  | > 100 | > 100 | > 100 | > 100 |  |  |  | 
10 | CCOC(=O)C1C[C@H]2CO[C@H](c3ccccc3)N2C1=O (some centres not stated) |  | > 100 |  | > 100 | > 100 | > 100 |  | > 100 | > 100 | > 100 | > 100 |  |  |  | 
11 | NC(=O)c1ncn2c(=O)n(CCl)nnc12 |  | > 100 |  | > 100 | > 100 | > 100 |  | > 100 | > 100 | > 100 | > 100 |  |  |  | 
12 | CO[C@H]1C[C@H](n2cc(C)c(=O)[nH]c2=O)O[C@@H]1CO |  | > 100 |  | > 100 | > 100 | > 100 |  | > 100 | > 100 | > 100 | > 100 |  |  |  | 
13 | COc1nc2ccc(CNc3ccc(C(=O)O)cc3)cc2nc1OC |  | > 10 |  | > 10 | > 10 | > 10 |  | > 10 | > 10 | > 10 | > 10 |  |  |  | 
14 | COP(=O)(OC)c1ccc(NCc2cc(O)ccc2O)cc1 |  | > 56.1 |  | 16.5 | > 100 | > 75.4 |  | 35.2 | 34.6 | > 63.2 | > 100 |  |  |  | 
15 | CCNc1cc2c3c(c1)CCCN3CCC2 |  | 49.5 |  | 19.1 | 33 | 13.5 |  | 32.3 | > 100 | 10.9 | 35.6 |  |  |  | 
16 | O=C1c2ccccc2-c2nnc(-c3ccc(Cl)cc3)cc21 |  | > 10 |  | > 10 | > 10 | > 10 |  | > 10 | > 10 | > 10 | > 10 |  |  |  | 
17 | CCOC(=O)C1=CC(C)(C(=O)OCC)Nc2c(nc(SC)n(C)c2=O)N1 (configuration not stated) |  | > 10 |  | > 10 | > 10 | > 10 |  | > 10 | > 10 | > 10 | > 10 |  |  |  | 
18 | O=[N+]([O-])c1ccc2nc(/C=C(\O)c3ccccc3)c(/C=C(\O)c3ccccc3)nc2c1 |  | > 100 |  | 31.3 | > 100 | 21.3 |  | 48.3 | > 79 | > 100 | > 100 | 7.18 |  |  | 
19 | COc1ccc2oc(=Nc3ccc(F)cc3)c(C(N)=O)cc2c1 |  | > 100 |  | > 100 | > 100 | > 100 |  | > 100 | > 100 | > 100 | > 100 |  |  |  | 
20 | C/C(=N\NC(=O)c1cccnc1)c1cccc(/C(C)=N/NC(=O)c2cccnc2)n1.CC(=O)[O-].CC(=O)[O-].[Zn+2] | > 100 | 99.7 | > 100 | > 100 | > 100 | > 32.5 | > 100 | > 30.2 | 31.4 |  |  |  | 0.836 | 0.843 | 32
21 | COC(=O)[C@@]12OC[C@]34C([C@@H](O)C1O)[C@@]1(C)CC(=O)C(O)=C(C)C1C[C@H]3OC(=O)[C@H](OC(=O)/C=C(/c1ccccc1)C(F)(F)F)[C@H]42 (some centres not stated) | > 25 | > 25 | 15.3 |  | 14.2 |  | > 25 | 12.7 | > 25 |  |  |  |  |  | 
22 | Clc1ccc2nc(CC3CCCC3)[nH]c2c1 |  | > 100 |  | 22.7 | 64 | 29.9 |  | 34.7 | 27.6 | 38.5 | 71 |  |  |  | 
23 | COc1ccc(S(=O)(=O)Nc2ccc(-c3csc(N4C(=O)/C(=C/c5ccccc5)N=C4c4ccccc4)n3)cc2)cc1Cl |  | > 100 |  | > 100 | > 100 | > 100 |  | > 100 | > 100 | > 100 | > 100 |  |  |  | 
